In US20130157954A1, “METHODS FOR TREATMENT OR PROPHYLAXIS OF KIDNEY OR LIVER DYSFUNCTION” (NPS PHARMACEUTICALS, INC., priority 2010, published 2013):

Assay: Example 1: liver biomarkers (total bilirubin, ALT, AST, ALP) in short bowel syndrome patients, every four weeks for 24 weeks; also sorted by >5% change from baseline
Type: in vivo, Human
Set-up: AST (SGOT) Change from Baseline Median / ALT (SGPT) Median / TOTAL BILIRUBIN Median / TOTAL BILIRUBIN Change from Baseline Median / ALT (SGPT) Change from Baseline Median / AST (SGOT) Median: unit not given here
Conditions: for AST (SGOT) Change from Baseline Median / AST (SGOT) Median / TOTAL BILIRUBIN Change from Baseline Median / TOTAL BILIRUBIN Median / ALKALINE PHOSPHATASE Change from Baseline Median / ALT (SGPT) Change from Baseline Median / ALT (SGPT) Median: 0.10 mg/kg/day; for ALKALINE PHOSPHATASE change from baseline <−5%, number of patients / ALKALINE PHOSPHATASE change from baseline <−5%, percent of patients / ALKALINE PHOSPHATASE change from baseline >5%, number of patients / ALKALINE PHOSPHATASE change from baseline >5%, percent of patients / ALKALINE PHOSPHATASE change from baseline −5% <= and <=5%, number of patients / ALKALINE PHOSPHATASE change from baseline −5% <= and <=5%, percent of patients / ALT (SGPT) change from baseline <−5%, number of patients / ALT (SGPT) change from baseline <−5%, percent of patients / ALT (SGPT) change from baseline >5%, number of patients / ALT (SGPT) change from baseline >5%, percent of patients / ALT (SGPT) change from baseline −5% <= and <=5%, number of patients / ALT (SGPT) change from baseline −5% <= and <=5%, percent of patients / AST (SGOT) change from baseline <−5%, number of patients / AST (SGOT) change from baseline <−5%, percent of patients / AST (SGOT) change from baseline >5%, number of patients / AST (SGOT) change from baseline >5%, percent of patients / AST (SGOT) change from baseline −5% <= and <=5%, number of patients / AST (SGOT) change from baseline −5% <= and <=5%, percent of patients / TOTAL BILIRUBIN change from baseline <−5%, number of patients / TOTAL BILIRUBIN change from baseline <−5%, percent of patients / TOTAL BILIRUBIN change from baseline >5%, number of patients / TOTAL BILIRUBIN change from baseline >5%, percent of patients / TOTAL BILIRUBIN change from baseline −5% <= and <=5%, number of patients / TOTAL BILIRUBIN change from baseline −5% <= and <=5%, percent of patients: 0.1 mg/kg/day
Experimental: Human patients with short bowel syndrome were divided into three groups: a control group (16 total individuals) to receive placebo, an experimental group (35 total individuals) to receive teduglutide at 0.05 mg/kg/day throughout the study, and an experimental group (32 total individuals) to receive teduglutide at 0.1 mg/kg/day throughout the study. Patients were treated by subcutaneous injection of placebo or the appropriate dose of teduglutide. As individuals with short bowel syndrome are likely to experience associated liver and kidney disease, known biomarkers of liver and kidney function were monitored every four weeks, for 24 weeks. The liver biomarkers tested included total bilirubin, ALT and AST and ALP. The kidney biomarkers tested included urea nitrogen, creatinine and GFR. Before administration of placebo or teduglutide, diagnostic biomarker levels were tested to establish a baseline for each individual.
To visualize the effect of GLP-2 on the levels of the diagnostic biomarkers, the average change from baseline was calculated for the placebo and teduglutide treated groups for each visit after a baseline was established. The average change from baseline of each group is depicted in FIGS. 1-7. The numerical figures for each diagnostic biomarker at each time point are depicted in Table 1.
The efficacy of teduglutide in treating liver dysfunction was further tested by sorting the data into two groups: individuals with abnormal baseline values of liver diagnostic biomarkers; and individuals with normal baseline values of liver diagnostic biomarkers. The mean diagnostic biomarker change from baseline for these two groups is shown for ALT (FIGS. 5 and 6) and AST (FIGS. 7 and 8). […] These changes were significant when compared to baseline levels for the group, and when compared to placebo (see FIGS. 5 and 7).
The raw data for this sorting is reproduced in Table 2 below.

## CC[C@H](C)[C@H](NC(=O)[C@H](Cc1ccccc1)NC(=O)[C@H](CC(=O)O)NC(=O)[C@H](CCCNC(=N)N)NC(=O)[C@H](C)NC(=O)[C@H](C)NC(=O)[C@H](CC(C)C)NC(=O)[C@H](CC(N)=O)NC(=O)[C@H](CC(=O)O)NC(=O)[C@H](CC(C)C)NC(=O)[C@@H](NC(=O)[C@@H](NC(=O)[C@H](CC(N)=O)NC(=O)[C@H](CCSC)NC(=O)[C@H](CCC(=O)O)NC(=O)[C@H](CC(=O)O)NC(=O)[C@H](CO)NC(=O)[C@H](Cc1ccccc1)NC(=O)[C@H](CO)NC(=O)CNC(=O)[C@H](CC(=O)O)NC(=O)CNC(=O)[C@@H](N)Cc1c[nH]cn1)[C@@H](C)O)[C@@H](C)CC)C(=O)N[C@@H](CC(N)=O)C(=O)N[C@@H](Cc1c[nH]c2ccccc12)C(=O)N[C@@H](CC(C)C)C(=O)N[C@H](C(=O)N[C@@H](CCC(N)=O)C(=O)N[C@H](C(=O)N[C@@H](CCCCN)C(=O)N[C@H](C(=O)N[C@H](C(=O)N[C@@H](CC(=O)O)C(=O)O)[C@@H](C)O)[C@@H](C)CC)[C@@H](C)O)[C@@H](C)CC [teduglutide]
DW4
  AST (SGOT) Change from Baseline Median: −5.0
  AST (SGOT) Median: 28.0
  TOTAL BILIRUBIN Change from Baseline Median: −1.0
  TOTAL BILIRUBIN Median: 7.0
DW8
  ALKALINE PHOSPHATASE Change from Baseline Median: −20.0
  ALT (SGPT) Change from Baseline Median: −8.0
  AST (SGOT) Change from Baseline Median: −5.0
  AST (SGOT) Median: 28.0
  TOTAL BILIRUBIN Change from Baseline Median: −1.0
  TOTAL BILIRUBIN Median: 7.0
DW12
  ALT (SGPT) Change from Baseline Median: −11.0
  ALT (SGPT) Median: 35.0
  AST (SGOT) Change from Baseline Median: −3.5
  TOTAL BILIRUBIN Change from Baseline Median: 0.0
  TOTAL BILIRUBIN Median: 7.0
DW16
  ALT (SGPT) Change from Baseline Median: −10.0
  ALT (SGPT) Median: 30.0
  AST (SGOT) Change from Baseline Median: −4.0
  AST (SGOT) Median: 30.0
  TOTAL BILIRUBIN Change from Baseline Median: −0.5
  TOTAL BILIRUBIN Median: 7.5
DW20
  ALKALINE PHOSPHATASE Change from Baseline Median: −23.0
  ALT (SGPT) Change from Baseline Median: −9.0
  ALT (SGPT) Median: 29.0
  AST (SGOT) Change from Baseline Median: −2.5
  AST (SGOT) Median: 30.0
  TOTAL BILIRUBIN Change from Baseline Median: 0.0
  TOTAL BILIRUBIN Median: 7.0
DW 24
  ALKALINE PHOSPHATASE Change from Baseline Median: −21.0
  ALT (SGPT) Change from Baseline Median: −4.0
  ALT (SGPT) Median: 37.0
  AST (SGOT) Change from Baseline Median: −3.0
  AST (SGOT) Median: 32.0
  TOTAL BILIRUBIN Change from Baseline Median: 0.0
  TOTAL BILIRUBIN Median: 9.0
Week 4
  ALKALINE PHOSPHATASE change from baseline <−5%, number of patients: 17
  ALKALINE PHOSPHATASE change from baseline <−5%, percent of patients: (53.1%)
  ALKALINE PHOSPHATASE change from baseline >5%, number of patients: 11
  ALKALINE PHOSPHATASE change from baseline >5%, percent of patients: (34.4%)
  ALKALINE PHOSPHATASE change from baseline −5% <= and <=5%, number of patients: 4
  ALKALINE PHOSPHATASE change from baseline −5% <= and <=5%, percent of patients: (12.5%)
  ALT (SGPT) change from baseline <−5%, number of patients: 20
  ALT (SGPT) change from baseline <−5%, percent of patients: (62.5%)
  ALT (SGPT) change from baseline >5%, number of patients: 10
  ALT (SGPT) change from baseline >5%, percent of patients: (31.3%)
  ALT (SGPT) change from baseline −5% <= and <=5%, number of patients: 2
  ALT (SGPT) change from baseline −5% <= and <=5%, percent of patients: (6.3%)
  AST (SGOT) change from baseline <−5%, number of patients: 17
  AST (SGOT) change from baseline <−5%, percent of patients: (53.1%)
  AST (SGOT) change from baseline >5%, number of patients: 10
  AST (SGOT) change from baseline >5%, percent of patients: (31.3%)
  AST (SGOT) change from baseline −5% <= and <=5%, number of patients: 4
  AST (SGOT) change from baseline −5% <= and <=5%, percent of patients: (12.5%)
  TOTAL BILIRUBIN change from baseline <−5%, number of patients: 16
  TOTAL BILIRUBIN change from baseline <−5%, percent of patients: (50.0%)
  TOTAL BILIRUBIN change from baseline >5%, number of patients: 12
  TOTAL BILIRUBIN change from baseline >5%, percent of patients: (37.5%)
  TOTAL BILIRUBIN change from baseline −5% <= and <=5%, number of patients: 3
  TOTAL BILIRUBIN change from baseline −5% <= and <=5%, percent of patients: (9.4%)
Week 8
  ALKALINE PHOSPHATASE change from baseline <−5%, number of patients: 24
  ALKALINE PHOSPHATASE change from baseline <−5%, percent of patients: (75.0%)
  ALKALINE PHOSPHATASE change from baseline >5%, number of patients: 5
  ALKALINE PHOSPHATASE change from baseline >5%, percent of patients: (15.6%)
  ALKALINE PHOSPHATASE change from baseline −5% <= and <=5%, number of patients: 2
  ALKALINE PHOSPHATASE change from baseline −5% <= and <=5%, percent of patients: (6.3%)
  ALT (SGPT) change from baseline <−5%, number of patients: 20
  ALT (SGPT) change from baseline <−5%, percent of patients: (62.5%)
  ALT (SGPT) change from baseline >5%, number of patients: 8
  ALT (SGPT) change from baseline >5%, percent of patients: (25.0%)
  ALT (SGPT) change from baseline −5% <= and <=5%, number of patients: 2
  ALT (SGPT) change from baseline −5% <= and <=5%, percent of patients: (6.3%)
  AST (SGOT) change from baseline <−5%, number of patients: 21
  AST (SGOT) change from baseline <−5%, percent of patients: (65.6%)
  AST (SGOT) change from baseline >5%, number of patients: 5
  AST (SGOT) change from baseline >5%, percent of patients: (15.6%)
  AST (SGOT) change from baseline −5% <= and <=5%, number of patients: 4
  AST (SGOT) change from baseline −5% <= and <=5%, percent of patients: (12.5%)
  TOTAL BILIRUBIN change from baseline <−5%, number of patients: 16
  TOTAL BILIRUBIN change from baseline <−5%, percent of patients: (50.0%)
  TOTAL BILIRUBIN change from baseline >5%, number of patients: 7
  TOTAL BILIRUBIN change from baseline >5%, percent of patients: (21.9%)
  TOTAL BILIRUBIN change from baseline −5% <= and <=5%, number of patients: 6
  TOTAL BILIRUBIN change from baseline −5% <= and <=5%, percent of patients: (18.8%)
Week 12
  ALKALINE PHOSPHATASE change from baseline <−5%, number of patients: 19
  ALKALINE PHOSPHATASE change from baseline <−5%, percent of patients: (59.4%)
  ALKALINE PHOSPHATASE change from baseline >5%, number of patients: 10
  ALKALINE PHOSPHATASE change from baseline >5%, percent of patients: (31.3%)
  ALKALINE PHOSPHATASE change from baseline −5% <= and <=5%, number of patients: 1
  ALKALINE PHOSPHATASE change from baseline −5% <= and <=5%, percent of patients: (3.1%)
  ALT (SGPT) change from baseline <−5%, number of patients: 20
  ALT (SGPT) change from baseline <−5%, percent of patients: (62.5%)
  ALT (SGPT) change from baseline >5%, number of patients: 7
